Measurements from PMC9259769, “Biochemical characterization and peptide mass fingerprinting of two glutathione transferases from Biomphalaria alexandrina snails (Gastropoda: Planorbidae)” (Journal of Genetic Engineering & Biotechnology, 2022).
Read-outs that look alike come from different tables or passages of the source.

Columns and labels:
BaGST2 [1] = experiment: Substrate specificity (glutathione transferase and peroxidase assays); assay type: biochemical, Biomphalaria alexandrina
Excerpt: (§1) One unit of transferase activity is defined as the amount of enzyme which catalyzes the formation of 1 μmol of thioether per min, and the specific activity is expressed as μmol/min/mg protein.
(§2) Enzyme activity with various aromatic substrates, namely, bromosulfophthalein (BSP), 1, 2-dichloro-4-nitrobenzene (DCNB), p-nitrophenethyl-bromide, and ethacrynic acid (EA), was examined as described.
(§3) Substrate specificities of BaGST2 and BaGST3 toward several compounds were studied.

BaGST3 [2] = experiment: as above; assay type: biochemical, Biomphalaria alexandrina
Excerpt: as §1, §2, §3

[3] = target: Biomphalaria alexandrina glutathione transferase BaGST3 (Biomphalaria alexandrina); experiment: SEC; Sephadex G-75 column (90 x 1.4 cm), 20 mM Tris-HCl pH 8.0, 100 mM NaCl, 4 °C; calibrated with standard proteins; apparent MW about 45 kDa compared with the subunit MW of 23.6 kDa by SDS-PAGE
BaGST2 [4] = experiment: Inhibition of GSH-CDNB-conjugating activity and type of inhibition; assay type: biochemical, Biomphalaria alexandrina; settings: for Type of inhibition / Vmax in the presence of inhibitor: CDNB as substrate; for Type of inhibition: inhibitor at less than I20; for Vmax in the presence of inhibitor: inhibitor at less than I20, without inhibitor 75.5; for IC50: GSH-CDNB-conjugating activity, standard assay conditions
Experimental: as §1
(§4) The IC50 values were determined according to Yalcin [18]. The IC50 values were determined by plotting percentage activity values versus log inhibitor concentrations.
(§5) The type of inhibition of BSP, hematin, and CB was also examined by studying the effect of constant concentration (less than IC20) of each inhibitor on the Km (CDNB) and Vmax of BaGST2 and BaGST3.

BaGST3 [5] = experiment: as above; assay type: biochemical, Biomphalaria alexandrina; settings: for Type of inhibition / Vmax in the presence of inhibitor: CDNB as substrate; for Type of inhibition: inhibitor at less than I20; for Vmax in the presence of inhibitor: inhibitor at less than I20, without inhibitor 48.8; for IC50: GSH-CDNB-conjugating activity, standard assay conditions
Experimental: as §1, §4, §5

BaGST2 [6] = experiment: Kinetic studies with varied GSH and CDNB concentrations; assay type: biochemical, Biomphalaria alexandrina; settings: 25 °C, substrate varied (CDNB 0.01-1.5 mM, GSH 0.025-1.5 mM)
Excerpt: as §1

BaGST3 [7] = experiment: as above; assay type: biochemical, Biomphalaria alexandrina
Excerpt: as §1

`O=[N+]([O-])c1ccc(Cl)c(Cl)c1` [DCNB, 1,2-dichloro-4-nitrobenzene] was tested, and the “Activity toward substrate (in words)” value (BaGST2 [1]; BaGST2) was “low activity”, the “Substrate specificity (specific activity), DCNB × 10^3” value (BaGST2 [1]; BaGST2, means ± SD, n ≥ 4) was 30 ± 1.5 μmol/min/mg × 10^3 and the “Activity toward substrate (in words)” value (BaGST3 [2]; BaGST3) was “low activity”. The “Substrate specificity (specific activity), DCNB × 10^3” value (BaGST3 [2]; BaGST3, means ± SD, n ≥ 4) was 10 ± 0.6 μmol/min/mg × 10^3.

“Biomphalaria alexandrina glutathione transferase BaGST3 (enzyme)” was tested, and the stoichiometry N [3] was 2.

`O=[N+]([O-])c1ccc(CCBr)cc1` [p-Nitro-phenethylbromide, p-nitrophenethyl-bromide] was tested, and the “Activity toward substrate (in words)” value (BaGST2 [1]; BaGST2) was “low activity”, the “Substrate specificity (specific activity)” value (BaGST2 [1]; BaGST2, means ± SD, n ≥ 4) was 2.70 ± 0.13 µmol/min/mg and the “Activity toward substrate (in words)” value (BaGST3 [2]; BaGST3) was “low activity”. The “Substrate specificity (specific activity)” value (BaGST3 [2]; BaGST3, means ± SD, n ≥ 4) was 6.00 ± 0.20 µmol/min/mg.

`C=CC1=C(C)c2cc3[n-]c(cc4[n-]c(cc5nc(cc1n2)C(C)=C5C=C)c(C)c4CCC(=O)O)c(CCC(=O)O)c3C.O.[Fe+2]` [Hematin, hematin] was tested, and the Type of inhibition (BaGST2 [4]) was “Mixed”, the “Vmax in the presence of inhibitor” value (BaGST2 [4]) was 13.7 μmol/min/mg protein and the IC50 (BaGST2 [4]) was 1.35 µM. For the same molecule, the Type of inhibition (BaGST3 [5]) was “Noncompetitive”, the “Vmax in the presence of inhibitor” value (BaGST3 [5]) was 15.8 μmol/min/mg protein and the IC50 (BaGST3 [5]) was 0.46 µM.

For `C=C(CC)C(=O)c1ccc(OCC(=O)O)c(Cl)c1Cl` [EA, ethacrynic acid], the “Activity toward substrate (in words)” value (BaGST2 [1]; BaGST2) was “high activity”, the “Substrate specificity (specific activity)” value (BaGST2 [1]; BaGST2, means ± SD, n ≥ 4) was 3.80 ± 0.11 µmol/min/mg and the “Activity toward substrate (in words)” value (BaGST3 [2]; BaGST3) was “high activity”. The “Substrate specificity (specific activity)” value (BaGST3 [2]; BaGST3, means ± SD, n ≥ 4) was 2.60 ± 0.10 µmol/min/mg.

With `Nc1c(S(=O)(=O)O)cc(Nc2ccc(Nc3nc(Cl)nc(Nc4ccccc4S(=O)(=O)O)n3)c(S(=O)(=O)O)c2)c2c1C(=O)c1ccccc1C2=O` [CB, Cibacron Blue] the Type of inhibition (BaGST2 [4]) was “Competitive”, the “Vmax in the presence of inhibitor” value (BaGST2 [4]) was 75.5 μmol/min/mg protein and the IC50 (BaGST2 [4]) was 2.35 µM. For the same molecule, the Type of inhibition (BaGST3 [5]) was “Competitive”, the “Vmax in the presence of inhibitor” value (BaGST3 [5]) was 48.8 μmol/min/mg protein and the IC50 (BaGST3 [5]) was 0.58 µM.

`CCCCSCC(NC(=O)CCC(N)C(=O)O)C(=O)NCC(=O)O` (stereo not drawn) [S-butyl-GSH] gave an IC50 (BaGST2 [4]) of 69.1 µM and an IC50 (BaGST3 [5]) of 51.2 µM.

With `O=[N+]([O-])c1ccc(Cl)c([N+](=O)[O-])c1` [CDNB, 1-chloro-2,4-dinitrobenzene] the Km (BaGST2 [6]) was 3330 µM, the Km (BaGST3 [7]; 25 °C, CDNB varied 0.01-1.5 mM, read-out: Km) was 50 µM and the “Specific activity toward CDNB” value (BaGST2 [1]; BaGST2 after GSH-Sepharose, 146-fold purification) was 19.0 μmol/min/mg protein. The “Specific activity toward CDNB” value (BaGST3 [2]; BaGST3 after GSH-Sepharose, 346-fold purification) was 45.2 μmol/min/mg protein.

`O=C1OC(c2ccc(O)c(S(=O)(=O)O)c2)(c2ccc(O)c(S(=O)(=O)O)c2)c2c(Br)c(Br)c(Br)c(Br)c21` [BSP, bromosulfophthalein] was tested, and the Type of inhibition (BaGST2 [4]) was “Competitive”, the “Vmax in the presence of inhibitor” value (BaGST2 [4]) was 75.5 μmol/min/mg protein and the IC50 (BaGST2 [4]) was 80.4 µM. The IC50 (BaGST3 [5]) was 95 µM, the “Activity toward substrate (in words)” value (BaGST2 [1]; BaGST2) was “did not show any detectable activity” and the “Activity toward substrate (in words)” value (BaGST3 [2]; BaGST3) was “did not show any detectable activity”.

For `N[C@@H](CCC(=O)N[C@@H](CS)C(=O)NCC(=O)O)C(=O)O` [GSH, γ-L-glutamyl-L-cysteinyl-glycine], the Km (BaGST2 [6]) was 220 µM, the Km (BaGST3 [7]; read-out: Km (GSH), high GSH concentrations, non-Michaelian, GSH 0.5-5 mM) was 610 µM and the Km (BaGST3 [7]; read-out: Km (GSH), low GSH concentrations, non-Michaelian, GSH 0.025-0.5 mM) was 150 µM.

`CC(C)(OO)c1ccccc1` [CuOOH, cumene hydroperoxide] was tested, and the “Activity toward substrate (in words)” value (BaGST2 [1]; BaGST2) was “peroxidase activity”, the “Substrate specificity (specific activity)” value (BaGST2 [1]; BaGST2, means ± SD, n ≥ 4) was 0.60 ± 0.02 µmol/min/mg and the “Activity toward substrate (in words)” value (BaGST3 [2]; BaGST3) was “peroxidase activity”. For the same molecule, the “Substrate specificity (specific activity)” value (BaGST3 [2]; BaGST3, means ± SD, n ≥ 4) was 1.40 ± 0.03 µmol/min/mg.

With `CCCCCCSC[C@H](NC(=O)CC[C@H](N)C(=O)O)C(=O)NCC(=O)O` [S–hexyl-GSH, S-hexyl-GSH] the IC50 (BaGST2 [4]) was 36.3 µM and the IC50 (BaGST3 [5]) was 19.5 µM.

`N[C@@H](CCC(=O)N[C@@H](CSCc1ccc(Br)cc1)C(=O)NCC(=O)O)C(=O)O` [S-P-bromobenzyl-GSH] was tested, and the IC50 (BaGST2 [4]) was 9.3 µM and the IC50 (BaGST3 [5]) was 34.9 µM.
